Laboratory results from patent US6455470B1, “Herbicidal compositions” (priority 1994, dated 2002).
Where “and” joins values, the source holds several entries; their conditions need not be identical. Equal entries are not always repeated.

Key:
Assay type in all cases: in vivo
Avena fatua (wild oats) = test: Growth room pot test, post-emergence phytotoxicity on AVEFA
Description: (§1) A simple mathematical method to test the additivity of a pesticide combination is based on the equation: [formula]
(§2) in which X and Y represent the percentage-of-inhibition of growth by toxicant A and B, respectively. E is the expected percentage-of-inhibition of growth by the mixture A and B. In order to show synergism, the actual efficacy should be higher than E.
(§3) The compounds were tested alone and in admixture with a co-herbicide, which was also tested alone, against the following weeds:
(§4) In the test procedure three replicate pots per treatment were randomly arranged through a growth room. The plants were treated about three weeks after planting and then submitted to a photoperiod of 14 hours per day; the temperature was 15 degrees Centigrade during the day and 9 degrees at night. All applications of test formulations were performed using a MARDRIVE sprayer, simulating as far as possible field conditions. The pressure was controlled at 2 bar and the water volume was 300 l/ha. The weed plants were at a true leaf stage between 0 to 6 leaves.
(§5) The results in the tables and figures are presented as average values of three replicates.

[1] = tested on: Lamium purpureum (red dead nettle); test: Growth room pot test, post-emergence phytotoxicity on LAMPU
Description: as §1, §2
(§6) are formulated as suspension concentrates (SC) containing about 42% by weight of active ingredient.
as §3, §4
(§7) Assessment of phytotoxicity was made by comparison with untreated control pots on an arbitrary scale from 0 to 100%, where 0 represents no visible effect and 100 represents a kill of all plants. The results in the tables and figures are presented as average values of three replicates.

[2] = tested on: Matricaria chamomilla (mayweed); test: Growth room pot test, post-emergence phytotoxicity on MATCH
Description: as §1, §2, §3, §4, §5

[3] = tested on: Veronica persica (common field speedwell); test: Growth room pot test, post-emergence phytotoxicity on VERPE
Description: as §1, §2, §6, §3, §4, §7

[4] = tested on: Stellaria media (common chickweed); test: Growth room pot test, post-emergence phytotoxicity on STEME
Description: as §1, §2, §3, §4, §5

[5] = tested on: Alopecurus myosuroides (black grass); test: Growth room pot test, post-emergence phytotoxicity on ALOMY
Description: as §1, §2, §3, §4, §5

[6] = tested on: Galium aparine (bedstraw cleavers); test: Growth room pot test, post-emergence phytotoxicity on GALAP
Description: as §1, §2, §6, §3, §4, §7

weeds = test: Growth room pot test, overall synergy on the weeds; conditions: mixtures of sulfonylurea A or B with co-herbicide
From the text: It is generally admitted that, in case of synergism, the effectiveness of the mixture cannot be computed from that of the individual ingredients. Synergism is generally defined as the simultaneous action of two or more compounds in which the total response of an organism to the pesticide combination is greater that the sum of the individual components.
as §1, §2, §3
as §4, with “leaves. […]” for “leaves.”

CC(C)N(C(=O)SCC(Cl)=C(Cl)Cl)C(C)C [Triallate, triallate]
Phytotoxicity of herbicide alone (Avena fatua (wild oats); 1500 g/ha): 65%
Phytotoxicity of herbicide alone ([1]; 1500 g/ha): 50%
Phytotoxicity of herbicide alone ([2]; 1500 g/ha): 10%
Phytotoxicity of herbicide alone ([3]; 500 g/ha): 40%
Phytotoxicity of herbicide alone ([4]; 1000 g/ha): 10%
Phytotoxicity of herbicide alone ([5]; 1500 g/ha): 50%

CCC(CC)Nc1c([N+](=O)[O-])cc(C)c(C)c1[N+](=O)[O-] [Pendimethalin, pendimethalin]
Phytotoxicity of herbicide alone ([6]; 1200 g/ha): 60%
Phytotoxicity of herbicide alone (Avena fatua (wild oats); 1200 g/ha): 0%
Phytotoxicity of herbicide alone ([1]; 400 g/ha): 70%
Phytotoxicity of herbicide alone ([2]; 800 g/ha): 50%
Phytotoxicity of herbicide alone ([3]; 1200 g/ha): 90%
Phytotoxicity of herbicide alone ([4]; 800 g/ha): 0%
Phytotoxicity of herbicide alone ([5]; 800 g/ha): 10%

CCOC(=O)[C@@H](C)Oc1ccc(Oc2nc3ccc(Cl)cc3o2)cc1 [fenoxaprop-P-ethyl]
Synergistic effect on the weeds (observed higher than expected) (weeds): synergized

CCS(=O)(=O)c1nc2ccccn2c1S(=O)(=O)NC(=O)Nc1nc(OC)cc(OC)n1 [SU - A]
Phytotoxicity of herbicide alone ([6]; 20 g/ha): 60%
Phytotoxicity of herbicide alone (Avena fatua (wild oats); 10 g/ha): 0%
Phytotoxicity of herbicide alone (Avena fatua (wild oats); 30 g/ha): 0% and 10%
Phytotoxicity of herbicide alone ([2]; 10 g/ha): 70% and 40%
Phytotoxicity of herbicide alone ([2]; 20 g/ha): 90% and 45%
Phytotoxicity of herbicide alone ([2]; 30 g/ha): 70%
Phytotoxicity of herbicide alone ([3]; 10 g/ha): 30% and 20%
Phytotoxicity of herbicide alone ([3]; 20 g/ha): 70% and 50%
Phytotoxicity of herbicide alone ([4]; 10 g/ha): 70% and 50%
Phytotoxicity of herbicide alone ([4]; 20 g/ha): 60%
Phytotoxicity of herbicide alone ([4]; 30 g/ha): 65% and 55%
Phytotoxicity of herbicide alone ([5]; 10 g/ha): 10% and 0%
Phytotoxicity of herbicide alone ([5]; 20 g/ha): 0%

imazamethabenz-methyl
Phytotoxicity of herbicide alone (Avena fatua (wild oats); 100 g/ha): 30%
Phytotoxicity of herbicide alone ([1]; 300 g/ha): 60%
Phytotoxicity of herbicide alone ([2]; 300 g/ha): 5%
Phytotoxicity of herbicide alone ([3]; 200 g/ha): 0%
Phytotoxicity of herbicide alone ([3]; 300 g/ha): 10%
Phytotoxicity of herbicide alone ([4]; 100 g/ha): 10%
Phytotoxicity of herbicide alone ([5]; 300 g/ha): 15%

CC(C)c1ccc(NC(=O)N(C)C)cc1 [Isoproturon, isoproturon]
Phytotoxicity of herbicide alone ([6]; 500 g/ha): 0%
Phytotoxicity of herbicide alone (Avena fatua (wild oats); 1000 g/ha): 0%
Phytotoxicity of herbicide alone ([1]; 500 g/ha): 25%
Phytotoxicity of herbicide alone ([3]; 500 g/ha): 0%
Phytotoxicity of herbicide alone ([4]; 500 g/ha): 0%
Phytotoxicity of herbicide alone ([5]; 1000 g/ha): 0%

CCS(=O)(=O)c1nc2sccn2c1S(=O)(=O)NC(=O)Nc1nc(OC)cc(OC)n1 [SU - B]
Phytotoxicity of herbicide alone ([6]; 20 g/ha): 80%
Phytotoxicity of herbicide alone (Avena fatua (wild oats); 20 g/ha): 0% and 5%
Phytotoxicity of herbicide alone (Avena fatua (wild oats); 30 g/ha): 0%
Phytotoxicity of herbicide alone ([1]; 10 g/ha): 0%
Phytotoxicity of herbicide alone ([2]; 20 g/ha): 60%
Phytotoxicity of herbicide alone ([2]; 30 g/ha): 90%
Phytotoxicity of herbicide alone ([3]; 20 g/ha): 50%
Phytotoxicity of herbicide alone ([4]; 20 g/ha): 20%
Phytotoxicity of herbicide alone ([4]; 30 g/ha): 30%
Phytotoxicity of herbicide alone ([5]; 20 g/ha): 10%
Phytotoxicity of herbicide alone ([5]; 30 g/ha): 20% and 40%

Nc1c(Cl)c(F)nc(OCC(=O)O)c1Cl [Fluroxypyr, fluroxypyr]
Phytotoxicity of herbicide alone ([6]; 50 g/ha): 70%
Phytotoxicity of herbicide alone (Avena fatua (wild oats); 100 g/ha): 0%
Phytotoxicity of herbicide alone ([1]; 1000 g/ha): 50%
Phytotoxicity of herbicide alone ([2]; 100 g/ha): 20%
Phytotoxicity of herbicide alone ([3]; 100 g/ha): 85%
Phytotoxicity of herbicide alone ([4]; 100 g/ha): 60%
Phytotoxicity of herbicide alone ([5]; 100 g/ha): 0%

Cn1c(-c2ccccc2)cc(-c2ccccc2)[n+]1C [Difenzoquat, difenzoquat]
Phytotoxicity of herbicide alone (Avena fatua (wild oats); 600 g/ha): 60%
Phytotoxicity of herbicide alone ([1]; 600 g/ha): 5%
Phytotoxicity of herbicide alone ([3]; 200 g/ha): 0%
Phytotoxicity of herbicide alone ([4]; 400 g/ha): 0%
Phytotoxicity of herbicide alone ([5]; 600 g/ha): 5%
